Experimental data from ChEMBL document CHEMBL1201862, “PubChem BioAssay data set” (2004).
Calls of active or inactive are those of the source.

Tests used:
[1] = NIH-3T3 fibroblast cytotoxicity, dose response, cytotoxicity control, cell-based, fluorescence, Alamar Blue, secondary assay (AID 2327); assay type: functional;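 note: NIH-3T3 mouse fibroblasts cultured with fluconazole at 8 µg/mL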
[2] = fluconazole-exposed Candida albicans growth modulators – fluorescence, retest, confirmation (AID 2467); assay type: functional, cell-based
[3] = biological target: Induced myeloid leukemia cell differentiation protein Mcl-1 (Homo sapiens, UniProt Q07820); experiment: blockers of MCL1 binding to BIM peptide – biochemical, fluorescence polarization, BIM-BH3 peptide, 1536-well, dose response (AID 2217)
Bcl-2-like protein 1 = Bcl-2-like protein 1 (Homo sapiens, UniProt Q07817); experiment: blockers of BCLXL peptide binding – biochemical, fluorescence polarization, 1536-well, selectivity assay for MCL1 inhibitor project, dose response (AID 2218)
[4] = biological target: Epstein-Barr nuclear antigen 1 (Epstein-Barr virus (strain B95-8) (HHV-4) (Human herpesvirus 4), UniProt P03211); experiment: inhibition of EBV nuclear antigen 1 DNA binding – biochemical, fluorescence polarization, 1536-well, dose response (AID 2381); parameters: species or system human gammaherpesvirus 4;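 note: fluorescence polarization of a Cy5 DNA probe bound by EBNA-1 protein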
[5] = biological target: Lytic switch protein BZLF1 (Epstein-Barr virus (strain B95-8) (HHV-4) (Human herpesvirus 4), UniProt P03206); experiment: inhibition of BZLF1 ZTA DNA binding – biochemical, fluorescence polarization, Epstein-Barr virus, 1536-well, counter-screen for EBNA-1 inhibitor project, dose response (AID 2377); parameters: species or system human gammaherpesvirus 4;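 note: fluorescence polarization of Cy5-labelled ZRE DNA probe bound by purified Zta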
Sequence of Lytic switch protein BZLF1 (P03206 whole entry): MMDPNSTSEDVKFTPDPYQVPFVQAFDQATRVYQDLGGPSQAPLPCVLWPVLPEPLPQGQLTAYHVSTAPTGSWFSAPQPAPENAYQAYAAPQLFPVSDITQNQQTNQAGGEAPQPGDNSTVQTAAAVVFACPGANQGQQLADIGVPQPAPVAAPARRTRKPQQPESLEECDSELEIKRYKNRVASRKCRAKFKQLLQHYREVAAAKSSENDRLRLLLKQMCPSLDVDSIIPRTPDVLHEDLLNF

Sequence of Epstein-Barr nuclear antigen 1 (P03211 whole entry): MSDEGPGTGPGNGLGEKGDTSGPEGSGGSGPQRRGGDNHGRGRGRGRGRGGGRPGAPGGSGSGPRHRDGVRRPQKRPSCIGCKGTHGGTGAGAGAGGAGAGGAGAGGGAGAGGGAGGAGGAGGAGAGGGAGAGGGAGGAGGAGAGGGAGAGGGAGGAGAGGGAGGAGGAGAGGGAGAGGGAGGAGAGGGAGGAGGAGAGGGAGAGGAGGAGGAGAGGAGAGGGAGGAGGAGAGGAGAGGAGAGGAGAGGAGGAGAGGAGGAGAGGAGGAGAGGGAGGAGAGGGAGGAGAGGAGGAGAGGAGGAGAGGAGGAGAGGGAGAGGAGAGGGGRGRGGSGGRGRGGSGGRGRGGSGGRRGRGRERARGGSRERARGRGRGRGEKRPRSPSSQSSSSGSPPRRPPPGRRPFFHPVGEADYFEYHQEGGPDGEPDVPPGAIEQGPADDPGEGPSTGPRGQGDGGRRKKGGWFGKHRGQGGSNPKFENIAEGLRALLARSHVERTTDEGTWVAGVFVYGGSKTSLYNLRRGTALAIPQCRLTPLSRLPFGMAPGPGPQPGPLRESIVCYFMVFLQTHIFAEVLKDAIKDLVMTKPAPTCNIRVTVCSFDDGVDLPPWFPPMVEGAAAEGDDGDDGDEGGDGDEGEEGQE
Sequence of Induced myeloid leukemia cell differentiation protein Mcl-1 (Q07820 whole entry): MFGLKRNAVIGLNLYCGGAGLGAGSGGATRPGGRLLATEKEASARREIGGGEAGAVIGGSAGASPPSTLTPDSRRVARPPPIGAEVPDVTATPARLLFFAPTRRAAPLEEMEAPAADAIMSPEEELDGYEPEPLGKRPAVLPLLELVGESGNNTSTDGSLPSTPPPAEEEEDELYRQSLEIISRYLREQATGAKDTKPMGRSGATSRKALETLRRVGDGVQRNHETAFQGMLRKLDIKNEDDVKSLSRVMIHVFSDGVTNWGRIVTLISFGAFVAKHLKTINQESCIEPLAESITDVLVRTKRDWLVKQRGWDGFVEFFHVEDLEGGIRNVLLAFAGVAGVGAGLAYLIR
Sequence of Bcl-2-like protein 1 (Q07817 whole entry): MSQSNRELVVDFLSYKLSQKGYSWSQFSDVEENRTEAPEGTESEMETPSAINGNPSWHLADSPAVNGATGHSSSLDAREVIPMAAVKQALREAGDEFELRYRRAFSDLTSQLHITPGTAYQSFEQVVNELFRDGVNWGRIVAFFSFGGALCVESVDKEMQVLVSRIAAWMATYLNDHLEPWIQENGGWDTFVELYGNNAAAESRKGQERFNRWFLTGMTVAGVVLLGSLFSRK

SMILES | EC50 [1] | EC50 [2] | IC50 [3] | IC50 (Bcl-2-like protein 1) | IC50 [4] | IC50 [5]
CC12CCC(C(=O)N(NC(=O)c3ccccc3O)C1=O)C2(C)C (stereo unspecified) | > 160 µM (inactive) | > 38 µM (not active) | > 109 µM (not active) | > 109 µM (not active) |  | 
COc1ccc(-c2nonc2NC(=O)c2oc3ccc(F)cc3c2C)cc1OC |  |  |  |  | 16.4 µM (not active) | > 111 µM (not active)
